Test results published in patent US20050004044A1, “Use of orsaponin [3beta, 16beta, 17 alpha-trihydroxycholost-5-en-22-one 16-0-(2-0-4-methoxybenzoyl-beta-D-xylopyranosyl)-(1->3)-(2-0-acetyl-alpha-L-arabinopyranoside)] or OSW-1 and its derivatives for cancer therapeutics” (priority 2003, published 2005).
Values joined by “and” are separate entries in the source; they are usually repeats but may differ in a detail not shown here. Equal entries are not always repeated. Where two headings read alike, the source gives them in different places.

Legend:
[1] = test system: pancreatic cancer AsPC-1 cells; assay: MTT cell growth inhibition, AsPC-1; format: cell-based, human; details: AsPC-1, 72 h or 96 h
Method: FIG. 3. Effect of Orsaponin (OSW-1) on cell growth in human pancreatic cancer cells. Human pancreatic cancer AsPC-1 cells were treated with the indicated concentrations of OSW-1 for 72 h or 96 h. Cell growth inhibition was measured by MTT assay.
FIG. 4. The anticancer activity of Orsaponin (OSW-1) is not affected by NFκB expression in pancreatic cancer cells. Human pancreatic cancer cells AsPC-1 with constitutive activation of NFκB or inactivation of NFκB by dominant negative IκBα (AsPC-1/IκBα-ND) were treated with the indicated concentrations of OSW-1 for 72 h. Cell growth inhibition was measured by MTT assay.
Cells and Cell Lines. Various cancer cell lines were used including the human leukemia cell lines HL-60 and ML-1 cells; human lymphoma cell line Raji; human pancreatic cancer cells AsPC-1; and human ovarian cancer cells SKOV3; human colon cancer cells HCT116; as well as isolated CLL cells from patients; and lymphocytes from normal donors. […]
1. […] After the indicated number of days (usually 3 days or 72 hours) of exposure to OSW-1, cell survival was assessed by the addition of the MTT dye to the wells. […] Survival of cells under orsaponin treatment was evaluated as a percentage of control cell growth. […]
(§1) The effect of Orsaponin and 17-deoxyorsaponin in pancreatic cancer cells was also assessed. […] Cell growth inhibition was measured by MTT assay.

C6F cells = assay: Mitochondrial transmembrane potential (rhodamine-123), C6F; format: cell-based, human; details: 0.5 nM
Method: FIG. 10. Effect of Orsaponin (OSW-1) on Mitochondrial transmembrane potential HL-60 cells. The parental HL-60 line and its mutant with mitochondrial respiration defect, clone C6F, were incubated with 0.5 nM OSW-1 for the indicated times. Change in mitochondrial transmembrane potential was measured by cytometry analysis, using rhodamine-123 as a potential-sensitive fluorescent dye.
3. Analysis of the Mitochondrial Transmembrane Potential. To evaluate the role of mitochondrial respiration in the cytotoxicity of OSW-1, changes in the potential of mitochondrial membrane were analyzed. Following the treatment of cells with OSW-1 for different time periods, cells were incubated with rhodamine-123 which is a potential-sensitive dye. Cytometric analysis was used to record changes in mitochondrial potential. […]
The effect of OSW-1 on mitochondrial transmembrane potential in HL-60 cells and C6F cells was also analyzed by incubating the cells with 0.5 nM OSW-1 for the 4, 16 and 24 hours. Change in mitochondrial transmembrane potential was measured by flow cytometry analysis, using rhodamine-123 as a potential-sensitive fluorescent dye and are depicted in FIG. 10.

[2] = 5-day intravenous toxicity study in mice; format: in vivo, ICR mice; details: for Early Deaths: 15 dosed; for NOAEL at 5 days: ICR
Method: To assess the toxicity of orsaponin of the present invention, a 5-day intravenous study with Orsaponin in mice was conducted. […] Five mice from each group were scheduled to be sacrificed 3, 14, and 42 days after the last dose was administered.
Tissues (liver with gall bladder, kidneys, heart with aorta, lungs, spleen, skeletal muscle, brain, pituitary gland, eyes, pancreas, stomach, duodenum, jejunum, ileum, cecum, colon, mesenteric lymph node, salivary gland, mandibular lymph node, thymus, adrenal glands, larynx/pharynx/tongue, thyroid gland, parathyroid, trachea, esophagus, skin, mammary gland (females only), prostate, seminal vesicles, urinary bladder, testes, epididymides, ovary, uterus, cervix, femur/knee joint, sternum, bone marrow, and gross lesions) were processed for microscopic evaluation.
Individual animal organ weight was also measured. Calculation of percent of control using the relative weight of the individual organs per 100 grams of the terminal body weight (TBW) is included below in Tables 8 and 9. A change of greater than 20% difference was considered toxicologically important, and/or a clear dose response relationship.

[3] = test system: pancreatic cancer (Panco-2) cells; assay: MTT cell growth inhibition, Panco-2; format: cell-based; details: Mus musculus, Panco-2, 72 h
Method: 1. MTT Assays. For these assays either cancer cell lines were used. Alternatively, mononuclear cells from peripheral blood samples of CLL patients or normal donors were separated by Ficoll Hipaque fractionation and resuspended in DMEM complete medium. Malignant cells from various human cell lines (usually at 5×10^4 cells/ml) or mononuclear cells from peripheral blood of leukemia patients and healthy donors (1×10^6 cells/ml) were incubated in either αMEM or RPMI 1640 with or without various concentrations of OSW-1 in the range of 0-10 nM. Each experimental condition was done in triplicate. After the indicated number of days (usually 3 days or 72 hours) of exposure to OSW-1, cell survival was assessed by the addition of the MTT dye to the wells. The MTT dye changes its color depending on the presence of live cells in the well. Survival of cells under orsaponin treatment was evaluated as a percentage of control cell growth. Alternatively, one can also use the dye trypan-blue which penetrates dead cells thereby allowing one to count live cells under the microscope and estimating percentage survival.
as §1

[4] = male mice, early deaths day 4, individual animals, listed as Orsaponin

## COc1ccc(C(=O)OC2C(OC3C(O)COC(O[C@H]4C[C@H]5[C@@H]6CC=C7C[C@@H](O)CC[C@]7(C)[C@H]6CC[C@]5(C)[C@@]4(O)[C@H](C)C(=O)CCC(C)C)C3OC(C)=O)OCC(O)C2O)cc1 (stereo partly drawn) [OSW-1, 3β, 16β, 17 α-trihydroxycholost-5-en-22-one 16-O-(2-O-4-methoxybenzoyl-β-D-xylopyranosyl)-(1->3)-(2-O-acetyl-α-L-arabinopyranoside)]
[1]
  concentrations at which highly potent: 0.1 to 5 nM
C6F cells
  change in mitochondrial transmembrane potential: did not show significant loss of mitochondrial transmembrane potential
[2]; Females, 10 μg/kg/day
  Early Deaths: 0
[2]; Females, 20 μg/kg/day
  Early Deaths: 0
[2]; Females, 30 μg/kg/day
  Early Deaths: 0
[2]; Females, 40 μg/kg/day
  Early Deaths: 0
[2]; Females, 14-Day, 20 μg/kg/day
  Spleen Relative Weight: 109% of Control
[2]; Females, 14-Day, 40 μg/kg/day
  Liver Relative Weight: 105% of Control
[2]; Females, 42-Day, 20 μg/kg/day
  Kidney Relative Weight: 116% of Control
[2]; Females, 42-Day, 40 μg/kg/day
  Kidney Relative Weight: 105% of Control
[2]; Males, 10 μg/kg/day
  Early Deaths: 0
[2]; Males, 20 μg/kg/day
  Early Deaths: 7
[2]; Males, 40 μg/kg/day
  Early Deaths: 15
[2]; Males, 3-Day, 10 μg/kg/day
  Kidney Relative Weight: 103% of Control
[2]; Males, 3-Day, 20 μg/kg/day
  Kidney Relative Weight: 116% of Control
[2]; Males, 14-Day, 10 μg/kg/day
  TBW: 107% of Control
[2]; female mice, 10, 20 or 40 μg/kg/day i.v.
  mortality or morbidity: no mortality or morbidity was observed
[2]; female, mouse, in vivo, females, read-out: no-observed-adverse-effect level (NOAEL)
  NOAEL at 5 days: 0.04 mg/kg/day
[2]; females
  no-observed-effect level (NOEL): 40 µg/kg/day
[2]; male mice
  NOEL: No NOEL
[2]; male mice, 20 and 40 μg/kg/day, after the fourth injection
  mortality and morbidity: mortality and morbidity was observed
[2]; male mice, early deaths day 4, individual animals (IDs 30xx, 40xx), 30 and 40 μg/kg/day groups, listed as Orsaponin
  Hemolysis Sl, Md, Mk: Md (6×) and Mk and Sl
[2]; [4]
  ALK PHOS: 1896 IU/L and 1746 IU/L and 2290 IU/L and 3302 IU/L and >4500 IU/L and >1500 IU/L (2×) and 2001 IU/L and >2842 IU/L and 3339 IU/L and 4992 IU/L and 4326 IU/L
  ALT: 1058 IU/L and 486 IU/L and >8800 IU/L (2×) and >4400 IU/L (2×) and 2060 IU/L and >6600 IU/L (2×) and 5642 IU/L and 4950 IU/L and 5596 IU/L
  AST: 1794 IU/L and 1167 IU/L and >8800 IU/L (3×) and 3306 IU/L and >6600 IU/L (2×) and 4341 IU/L and >4400 IU/L and 5106 IU/L and 5864 IU/L
  Alb: 4.2 gm/dl and 3 gm/dl and 3.4 gm/dl and 2.4 gm/dl (2×) and 3.8 gm/dl (2×) and 3.3 gm/dl and 3.9 gm/dl and 2.8 gm/dl and 2.7 gm/dl
  CHLORIDE: 103 mmol/L and 110 mmol/L (3×) and 116 mmol/L and 105 mmol/L and 109 mmol/L and 107 mmol/L
  Glob: 2.3 gm/dl and 1.8 gm/dl (2×) and 6.6 gm/dl and 1.4 gm/dl (2×) and 1.6 gm/dl and 1.5 gm/dl and 2.1 gm/dl and 1.2 gm/dl and 1 gm/dl
  T. PROTEIN: 6.5 gm/dl and 4.8 gm/dl (2×) and 10 gm/dl and 3.8 gm/dl and 5.4 gm/dl and 5.6 gm/dl and 6 gm/dl (2×) and 4 gm/dl and 4.1 gm/dl and 3.4 gm/dl
[2]; male, mouse, in vivo, males, 5 daily doses, based on pathology, read-out: NOAEL
  NOAEL at 5 days: 0.01 mg/kg/day
[2]; mouse, in vivo
  compound-related findings: No Orsaponin-related findings were observed
  interpretation of AST, ALT and total bilirubin: severe liver disease
  reversibility of hepatocellular lesion: completely reversible
[3]
  IC50: 0.1 nM
